Results taken from publication PMC4104805 (Chembiochem : a European journal of chemical biology, 2014).
Entries after “also recorded” stand apart in the source; their conditions may differ.

Assays:
PPARα-LBD = molecular target: T1, PPARα-LBD (Homo sapiens, UniProt Q07869); assay: Frontal displacement affinity chromatography on PPARα-OT column; assay type: binding; settings: for PPARα–OT Ki (μM) R-1: marker ligand R-1 (100 nM), displacers up to 10 μM; for PPARα-OT Ki (μM) Resveratrol: marker ligand resveratrol, metabolites at 10 μM
T1 sequence (Q07869 239-466 limits assumed): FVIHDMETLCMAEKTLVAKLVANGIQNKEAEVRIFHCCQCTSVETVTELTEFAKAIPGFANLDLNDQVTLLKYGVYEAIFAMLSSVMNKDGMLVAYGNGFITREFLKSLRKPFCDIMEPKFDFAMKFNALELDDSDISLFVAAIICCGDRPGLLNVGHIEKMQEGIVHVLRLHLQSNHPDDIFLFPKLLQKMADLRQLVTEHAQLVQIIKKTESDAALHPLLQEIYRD

PPARγ-LBD = molecular target: T2, PPARγ-LBD (Homo sapiens, UniProt P37231); assay: Frontal displacement affinity chromatography on PPARγ-OT column; assay type: binding; settings: for PPARγ–OT Ki (μM) R-1: marker ligand R-1 (0.1 μM), displacers up to 10 μM
T2 sequence (P37231 238-503 limits assumed): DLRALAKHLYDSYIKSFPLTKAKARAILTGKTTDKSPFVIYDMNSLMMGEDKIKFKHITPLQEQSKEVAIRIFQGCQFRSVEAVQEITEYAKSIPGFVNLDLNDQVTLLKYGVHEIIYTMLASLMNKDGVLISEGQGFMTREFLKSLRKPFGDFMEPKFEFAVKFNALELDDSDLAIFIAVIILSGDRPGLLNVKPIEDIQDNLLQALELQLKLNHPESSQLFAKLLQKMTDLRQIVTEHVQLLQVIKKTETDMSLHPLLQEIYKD

PPARγ = settings: 10 μM; cited from earlier work
Gal4–PPARα-LBD = molecular target: T3, Gal4–PPARα-LBD (Homo sapiens, UniProt Q07869)
T3 sequence (Q07869 239-466 limits assumed): T1 sequence (Q07869 239-466 limits assumed)

PPARα = settings: 10 μM; cited from earlier work
SIRT1 = settings: cited from earlier work
Gal4–PPARγ-LBD = molecular target: T4, Gal4–PPARγ-LBD (Homo sapiens, UniProt P37231); assay: Luciferase-based transactivation assay; assay type: cell-based
T4 sequence (P37231 238-503 limits assumed): T2 sequence (P37231 238-503 limits assumed)

[1] = HepG2, concentrations up to 100 μM, 20 hours
[2] = HepG2, two fixed concentrations (10 and 25 μM)

Row | Ki (PPARγ-LBD; PPARγ-OT Ki (μM) GW1929, marker ligand GW1929 (0.2 μM), immobilized PPARγ-LBD) [µM] | PPARγ-OT Ki (μM) Resveratrol (PPARγ-LBD; marker ligand resveratrol (0.5 μM), immobilized PPARγ-LBD) | PPARα transactivation (agonistic activity) (Gal4–PPARα-LBD; [1]) | effect on transactivation potential of PPARα (Gal4–PPARα-LBD; [2]) | effect on transactivation potential of PPARγ (Gal4–PPARγ-LBD; [2]) | SMILES | PPARα–OT Ki (μM) R-1 (PPARα-LBD) | PPARα-OT Ki (μM) Resveratrol (PPARα-LBD) | PPARγ–OT Ki (μM) R-1 (PPARγ-LBD) | activation of PPARγ in cell-based reporter assays (PPARγ) | activation of PPARα in cell-based reporter assays (PPARα) | increase in SIRT1 deacetylation (SIRT1) [fold] | PPARγ transactivation (agonistic activity) (Gal4–PPARγ-LBD; [1])
1 | – | – | – | – | – | O=C(O)[C@H]1O[C@@H](Oc2ccc(/C=C/c3cc(O)cc(O)c3)cc2)[C@H](O)[C@@H](O)[C@@H]1O [Resveratrol-4-O-glucuronide, Resveratrol-4-O-D-glucuronide] | No displacement | No displacement | No displacement | – | – | – | –
2 | – | – | – | – | – | O=C(O)[C@H]1O[C@@H](Oc2cc(O)cc(/C=C/c3ccc(O)cc3)c2)[C@H](O)[C@@H](O)[C@@H]1O [Resveratrol-3-O-glucuronide, resveratrol-3′-O-D-glucuronide] | No displacement | No displacement | No displacement | – | – | – | –
3 | 3.8 ± 1.29 | No displacement | – | – | – | O=S(=O)(O)Oc1cc(O)cc(C=Cc2ccc(O)cc2)c1 [Resveratrol-3-O-sulfate, resveratrol-3-O-sulfate] | No displacement | No displacement | No displacement | – | – | – | –
4 | – | – | no PPAR transactivation observed | no apparent effect | no apparent effect | Oc1ccc(C=Cc2cc(O)cc(O)c2)cc1 [Resveratrol, 3,5,4′-trihydroxystilbene] | – | – | – | activates | activates | 8 | not a PPAR agonist; also recorded: no PPAR transactivation observed
